Data: patent publication US11440880B2, “Thalidomide analogs and methods of use” (The USA, as represented by the Secretary, Department of …, priority 2015, dated 2022)

Key:
[1] = tested on: TNF-α protein; test: TNF-α protein level (ELISA) in LPS-challenged RAW 264.7 cells; assay type: cell-based, mouse; design: key: NS=not significant; a “+” sign=anti-inflammatory or increased cell numbers; a “−” sign=cell toxicity or pro-inflammatory; conditions: LPS 30 or 60 ng/mL, 24 h
Experimental: (§1) Nitrite levels in the culture media were measured by use of the Griess Reagent System (Promega, Madison, Wis.), following the manufacturer's protocol. The O.D. of unknown samples was read at 520 nm λ, compared to a sodium nitrite standard curve (1.5 μM to 100 μM) and nitrite measured media concentrations expressed as μM units. As the lowest nitrite concentration on the Griess Reagent System standard curve was 1.5 μM, this was chosen as the effective cutoff for defining measurable nitrite concentrations. TNF-α protein levels were measured by use of an ELISA specific for mouse TNF-α protein (BioLegend, San Diego, Calif.) and are expressed as a % change from their appropriate control or as pg/ml.
(§2) RAW 264.7 cells obtained from ATCC (Manassas, Va., USA) were grown in DMEM media supplemented with 10% FCS, penicillin 100 μg/ml and streptomycin 100 μg/ml, and maintained at 37° C. and 5% CO2. Cells were seeded in 24 well plates and, 24 hours later, were utilized in studies. One hour prior to the initiation of any study, the seeding media was replaced with fresh media (1 mL), and the cells were allowed to equilibrate at 37° C. and 5% CO2.
(§3) RAW 264.7 cells were challenged with LPS (Sigma, St Louis, Mo.: serotype 055:B5) from at a final concentration of 30 or 60 ng/mL. This concentration of LPS in RAW 264.7 cells induces a sub-maximal rise in both TNF-alpha and nitrite levels without a loss in cellular viability. This sub-maximal rise is useful for assessing whether the addition of an experimental drug can either lower or further raise levels of TNF-α and nitrite. Twenty four hours following the addition of LPS, conditioned media was harvested and analyzed for quantification of secreted TNF-α protein and nitrite levels. Fresh media was replaced into the wells and cell viability was then assessed.
(§4) Thalidomide and analogs were prepared in tissue culture grade DMSO (Sigma). RAW 264.7 cells were pretreated with thalidomide, analogues or vehicle one hour prior to a challenge with LPS. The effects of various concentrations of thalidomide analogues were assessed. All compounds were synthesized to a chemical purity of >99.5%, as assessed by chemical characterization by a combination of 1H NMR, 13C NMR and GC/MS analyses (Bruker AC-300 spectrometer, together with elemental analyses (Atlantic Microlab, Inc., Norcross, Ga.).

[2] = tested on: nitrite levels in the culture media; test: Nitrite level (Griess Reagent System) in LPS-challenged RAW 264.7 cells; assay type: cell-based, mouse; design: key: NS=not significant; a “+” sign=anti-inflammatory or increased cell numbers; a “−” sign=cell toxicity or pro-inflammatory; conditions: LPS 30 or 60 ng/mL, 24 h
Experimental: as §1, §2, §3, §4

[3] = tested on: RAW 264.7 cells; test: Cell viability (CellTiter 96 AQueous One) of LPS-challenged RAW 264.7 cells; assay type: cell-based, mouse; design: key: NS=not significant; a “+” sign=anti-inflammatory or increased cell numbers; a “−” sign=cell toxicity or pro-inflammatory
Experimental: The CellTiter 96® AQueous One Solution Cell Proliferation Assay (Promega, Madison, Wis.) is routinely used as an assay of cell proliferation, and was used according to the manufacturer's recommendations. Changes in cellular health status are determined by use of indirect measures related to the formation of a colored tetrazolium dye product that can be measured spectrophotometrically at 490 nm λ. […] Optical densities (expressed as O.D.s) were measured after various incubations.
as §2, §3, §4

[4] = tested on: fli1:EGFP zebrafish embryos (intersegmental vessel growth); test: fli1:EGFP zebrafish embryo angiogenesis assay; assay type: in vivo; design: fli1:EGFP angiogenesis n (survived/tested): concentration or dose not given beside the values; conditions: for minimal effective concentration: Danio rerio, lowest concentration producing an effect, compounds not producing an effect shown at the highest evaluated concentration; for fli1:EGFP angiogenesis n (survived/tested): embryos alive after 24 hours of exposure
Source text: Zebrafish embryology: The use of zebrafish embryo (Danio rerio) bioassays as a preclinical model in the classification of novel compounds has increased in recent years due to several factors including; low cost, ease of maintenance, speed of embryonic development, transparency of the embryos and genetic conservation between zebrafish and humans (Howe et al., Nature 2013; 496:498; Therapontos et al., PNAS 2009, 106:8573; Mahony et al., PNAS 2013, 110:12703; Beedie et al., Oncotarget 2016, 7(22):33237; Beedie et al., Mol. Cancer Ther. 2015, 14(10):2228). Two established zebrafish reporter lines were used—the fli1:EGFP line, where the fli1 promoter drives expression of enhanced green fluorescent protein within the developing vasculature (Lawson et al., 2002), and the Tg(mpo::EGFP) line (also known as mpo:GFP), which expresses green fluorescent protein via the neutrophil specific myeloperoxidase promoter (Renshaw et al., Blood 2006, 108:3976). The use of these zebrafish transgenic reporter lines allows for the identification of potential anti-angiogenic and anti-inflammatory compounds respectively, and both have been used previously to successfully classify the action of thalidomide analogs (Therapontos et al., 2009; Mahony et al., 2013; Beedie et al., Oncotarget 2016, 7(22):33237; Beedie et al., Mol. Cancer Ther. 2015, 14(10):2228). Zebrafish embryos were treated with analogs as previously described (Mahony et al., 2013). Briefly, fli1:EGFP embryos were collected and embryos were allowed to develop for 24 hours. Embryos were dechorionated manually and exposed to test compounds or vehicle control for a further 24 hours, imaged and analyzed for intersegmental vessel (ISV) growth. At 24 hours post fertilisation (hpf) the ISVs were ideal to study to visualize and analyze the actions of compounds on angiogenesis. At this time point ISVs were rapidly forming beneath the developing head, over the body and had yet to form in the tail (Lawson and Weinstein, Developmental Biology 2002, 248:307; Therapontos and Vargesson, Developmental Dynamics 2010, 239:2761). Additionally, these sprouts would go on to form the bilateral dorsal longitudinal anastomotic vessels. By treating before this fusion and formation occurs, the effect of each compound on the individual vessels as well as overall patterning structural integrity (Isogai et al., Development 2003, 130:5281) could be determined. Tg(mpo::EGFP) were tail fin clipped as previously detailed (Renshaw et al., 2006; Mahony et al., 2013; Beedie et al., Oncotarget 2016, 7(22):33237; Beedie et al., Mol. Cancer Ther. 2015, 14(10):2228) and incubated with test compounds or vehicle control at 72 hours post fertilization. Fish were imaged at 24 hours and the number of migratory neutrophils present at the wound site were counted. Compounds inducing an at least 50% reduction of neutrophils to the wound site were considered to have anti-inflammatory properties in this system. All larvae were assessed for viability and morphological integrity.
To determine if the thalidomide analogs had any effect on angiogenesis, fli1:EGFP embryos (Lawson and Weinstein, Developmental Biology 2002, 248:307-318) were exposed to either vehicle or a compound of interest, over a range of concentrations and over a range of time points starting at 24 hpf. Images were obtained at three time points over 24 hours after exposure to the compounds. The best concentration and time point were selected. CPS49, a compound that is chemically and structurally similar to thalidomide breakdown products, and is tetrafluorinated (which adds stability and bioactivity to the compound) and that causes severe limb defects in chicken embryos, was used as a positive control. The embryos were imaged at 48 hpf (FIGS. 3A3L) and analyzed for both vessel formation and the extent of growth of the vasculature. […]

CC(N1Cc2c(cccc2[N+](=O)[O-])C1=S)C12CC3CC(CC(C3)C1)C2 (stereo not shown) [Compound 89]
TNF-α ([1]; 1 μM): NS | TNF-α ([1]; 10 μM): NS | TNF-α ([1]; 30 μM): NS | Nitrite ([2]; 1 μM): NS | Nitrite ([2]; 10 μM): + | Nitrite ([2]; 30 μM): + | Viability ([3]; 1 μM): NS | Viability ([3]; 10 μM): NS | Viability ([3]; 30 μM): − | minimal effective concentration [4]: 10 µg/mL | fli1:EGFP angiogenesis n (survived/tested) [4]: 7/11

C[C@H]1[C@H](N2Cc3c(N)cccc3C2=O)C[C@@H]2C[C@H]1C2(C)C [Compound 91]
TNF-α ([1]; 1 μM): NS | TNF-α ([1]; 10 μM): + | TNF-α ([1]; 30 μM): + | Nitrite ([2]; 1 μM): + | Nitrite ([2]; 10 μM): + | Nitrite ([2]; 30 μM): + | Viability ([3]; 1 μM): NS | Viability ([3]; 10 μM): + | Viability ([3]; 30 μM): + | minimal effective concentration [4]: 10 µg/mL | fli1:EGFP angiogenesis n (survived/tested) [4]: 5/18

CC1(C)[C@@H]2CC[C@]1(C)[C@@H](N1Cc3c(cccc3[N+](=O)[O-])C1=O)C2 [Compound 96]
TNF-α ([1]; 1 μM): NS | TNF-α ([1]; 10 μM): + | TNF-α ([1]; 30 μM): + | Nitrite ([2]; 1 μM): + | Nitrite ([2]; 10 μM): + | Nitrite ([2]; 30 μM): + | Viability ([3]; 1 μM): − | Viability ([3]; 10 μM): − | Viability ([3]; 30 μM): NS

O=C1c2c(F)c(F)c(F)c(F)c2C(=O)N1c1ccc(F)cc1F [CPS49, reference compound]
anti-angiogenic effect (loss of ISVs or inhibition of ISV outgrowth) ([4]; in words): decrease in blood vessel length

C[C@H]1[C@H](N2Cc3c(cccc3[N+](=O)[O-])C2=O)C[C@@H]2C[C@H]1C2(C)C [Compound 90]
TNF-α ([1]; 1 μM): + | TNF-α ([1]; 10 μM): + | TNF-α ([1]; 30 μM): + | Nitrite ([2]; 1 μM): + | Nitrite ([2]; 10 μM): + | Nitrite ([2]; 30 μM): + | Viability ([3]; 1 μM): NS | Viability ([3]; 10 μM): NS | Viability ([3]; 30 μM): NS

Nc1cccc2c1CN([C@H]1C[C@H]3CC[C@@H]1C3)C2=O [Compound 102]
TNF-α ([1]; 1 μM): NS | TNF-α ([1]; 10 μM): NS | TNF-α ([1]; 30 μM): NS | Nitrite ([2]; 1 μM): NS | Nitrite ([2]; 10 μM): NS | Nitrite ([2]; 30 μM): NS | Viability ([3]; 1 μM): NS | Viability ([3]; 10 μM): NS | Viability ([3]; 30 μM): NS

CC1(C)[C@@H]2CC[C@H](CN3Cc4c(cccc4[N+](=O)[O-])C3=O)[C@H]1C2 [Compound 103]
TNF-α ([1]; 1 μM): NS | TNF-α ([1]; 10 μM): + | TNF-α ([1]; 30 μM): SIG | Nitrite ([2]; 1 μM): + | Nitrite ([2]; 10 μM): + | Nitrite ([2]; 30 μM): NS | Viability ([3]; 1 μM): NS | Viability ([3]; 10 μM): NS | Viability ([3]; 30 μM): SIG

Nc1cccc2c1CN(CC13CC4CC(CC(C4)C1)C3)C2=O [Compound 79]
TNF-α ([1]; 1 μM): NS | TNF-α ([1]; 10 μM): NS | TNF-α ([1]; 30 μM): NS | Nitrite ([2]; 1 μM): NS | Nitrite ([2]; 10 μM): NS | Nitrite ([2]; 30 μM): + | Viability ([3]; 1 μM): NS | Viability ([3]; 10 μM): NS | Viability ([3]; 30 μM): −

CC1(C)[C@@H]2CC[C@H](CN3C(=O)C4CC=CCC4C3=O)[C@H]1C2 (stereo partly shown) [Compound 112]
TNF-α ([1]; 10 μM): NS | TNF-α ([1]; 30 μM): + | TNF-α ([1]; 60 μM): + | Nitrite ([2]; 10 μM): NS | Nitrite ([2]; 30 μM): + | Nitrite ([2]; 60 μM): + | Viability ([3]; 10 μM): − | Viability ([3]; 30 μM): − | Viability ([3]; 60 μM): −

CC1(C)[C@@H]2CC[C@]1(C)[C@@H](N1C=C3C(=CC=C/C3=N\OO)C1=O)C2 [Compound 98]
TNF-α ([1]; 1 μM): SIG | TNF-α ([1]; 10 μM): + | TNF-α ([1]; 30 μM): + | Nitrite ([2]; 1 μM): + | Nitrite ([2]; 10 μM): + | Nitrite ([2]; 30 μM): + | Viability ([3]; 1 μM): NS | Viability ([3]; 10 μM): NS | Viability ([3]; 30 μM): NS

CC1(C)[C@@H]2CC[C@]1(C)[C@@H](N1C(=O)C3C4C=CC(C4)C3C1=O)C2 (stereo partly shown) [Compound 117]
TNF-α ([1]; 10 μM): + | TNF-α ([1]; 30 μM): + | TNF-α ([1]; 60 μM): + | Nitrite ([2]; 10 μM): + | Nitrite ([2]; 30 μM): + | Nitrite ([2]; 60 μM): + | Viability ([3]; 10 μM): − | Viability ([3]; 30 μM): − | Viability ([3]; 60 μM): −

C[C@@H]1[C@@H](N2Cc3c(N)cccc3C2=O)C[C@H]2C[C@@H]1C2(C)C [Compound 93]
TNF-α ([1]; 1 μM): NS | TNF-α ([1]; 10 μM): NS | TNF-α ([1]; 30 μM): NS | Nitrite ([2]; 1 μM): NS | Nitrite ([2]; 10 μM): NS | Nitrite ([2]; 30 μM): + | Viability ([3]; 1 μM): NS | Viability ([3]; 10 μM): NS | Viability ([3]; 30 μM): NS | minimal effective concentration [4]: 10 µg/mL | fli1:EGFP angiogenesis n (survived/tested) [4]: 8/10

O=C1c2cccc([N+](=O)[O-])c2CN1[C@H]1C[C@H]2CC[C@@H]1C2 [Compound 101]
TNF-α ([1]; 1 μM): NS | TNF-α ([1]; 10 μM): NS | TNF-α ([1]; 30 μM): + | Nitrite ([2]; 1 μM): + | Nitrite ([2]; 10 μM): + | Nitrite ([2]; 30 μM): + | Viability ([3]; 1 μM): − | Viability ([3]; 10 μM): − | Viability ([3]; 30 μM): NS
